Source: patent publication US9174964B2, “AMPK-activating piperidinyloxy-substituted 2,3-dihydro-1H-indene-1-amine compounds and pharmaceutical compositions including the same” (Rigel Pharmaceuticals, Inc., priority 2007, dated 2015)
Where a name gives a salt, the structure may show the parent alone.

Each compound was assayed against AMPK (assay: AMPK activation, enzyme-linked immunosorbent assay). Details: Table 2, AMPK activation, ELISA.
Assay type: biochemical

EC50 | SMILES
< 100 nM | O=C(NC1CCN(Cc2ccc(F)cc2)CC1)c1cncc(OC2CCN(c3ccc(C(F)(F)F)cc3)CC2)c1 [Compound 16, N-(1-(4-fluorobenzyl)piperidin-4-yl)-5-(1-(4-(trifluoromethyl)phenyl)piperidin-4-yloxy)nicotinamide]
1000 to 5000 nM | O=C(NC1CCN(Cc2ccccc2)CC1)c1ccc(OC2CCN(c3ccc(C(F)(F)F)cc3)CC2)cn1 [Compound 38, N-(1-benzylpiperidin-4-yl)-5-(1-(4-(trifluoromethyl)phenyl)piperidin-4-yloxy)picolinamide]
1000 to 5000 nM | O=C(O)c1ccc(CN2CCC(NC(=O)c3ccc(OC4CCN(c5ccc(C(F)(F)F)cc5)CC4)nc3)CC2)cc1 [Compound 46, 4-((4-(6-(1-(4-(trifluoromethyl)phenyl)piperidin-4-yloxy)nicotinamido)piperidin-1-yl)methyl)benzoic acid]
500 to 1000 nM | O=C(N[C@@H]1CCN(Cc2ccc(F)cc2)C1)c1ccc(OC2CCN(c3ccc(C(F)(F)F)cc3)CC2)cn1 [Compound 34, (R)-N-(1-(4-fluorobenzyl)pyrrolidin-3-yl)-5-(1-(4-(trifluoromethyl)phenyl)piperidin-4-yloxy)picolinamide]
1000 to 5000 nM | O=C(NC1CCN(Cc2ccc(F)cc2)CC1)c1ccnc(OC2CCN(c3ccc(C(F)(F)F)cc3)CC2)c1 [Compound 22, N-(1-(4-fluorobenzyl)piperidin-4-yl)-2-(1-(4-(trifluoromethyl)phenyl)piperidin-4-yloxy)isonicotinamide]
> 10000 nM | COC(=O)c1ccc(CN2CCC(NC(=O)c3ccc(OC4CCN(c5ccc(C(F)(F)F)cc5)CC4)nc3)CC2)cc1 [Compound 45, methyl 4-((4-(6-(1-(4-(trifluoromethyl)phenyl)piperidin-4-yloxy)nicotinamido)piperidin-1-yl)methyl)benzoate]
100 to 500 nM | O=C(NC1CCN(Cc2ccncc2)CC1)c1cc(OC2CCN(c3ccc(C(F)(F)F)cc3)CC2)ccn1 [Compound 13, N-(1-(pyridin-4-ylmethyl)piperidin-4-yl)-4-(1-(4-(trifluoromethyl)phenyl)piperidin-4-yloxy)picolinamide]

The remaining lines, values behind:

SMILES | EC50
N#Cc1ccc(N2CCC(Oc3ccc(C(=O)NC4CCN(Cc5cccnc5)CC4)nc3)CC2)cc1 [Compound 6, N-(1-(pyridin-3-ylmethyl)piperidin-4-yl)-5-(1-(4-cyanophenyl)piperidin-4-yloxy)picolinamide] | 100 to 500 nM
O=C(NC1CCNCC1)c1ccnc(OC2CCN(c3ccc(C(F)(F)F)cc3)CC2)c1 [Compound 19, N-(piperidin-4-yl)-2-(1-(4-(trifluoromethyl)phenyl)piperidin-4-yloxy)isonicotinamide] | 1000 to 5000 nM

Same assay, conditions: Table 4, AMPK activation, ELISA

EC50 | SMILES
> 50000 nM | O=C(NC1CCN(Cc2ccc(F)cc2)CC1)c1cc2ccc(OC3CCN(c4ccc(C(F)(F)F)cc4)CC3)cc2o1 [Compound 91, N-(1-(4-fluorobenzyl)piperidin-4-yl)-6-(1-(4-(trifluoromethyl)phenyl)piperidin-4-yloxy)benzofuran-2-carboxamide]
100 to 500 nM | O=C(N[C@@H]1CCN(Cc2ccncc2)C1)c1cc2cc(OC3CCN(c4ccc(C(F)(F)F)cc4)CC3)ccc2o1 [Compound 122, (R)-N-(1-(pyridin-4-ylmethyl)pyrrolidin-3-yl)-5-(1-(4-(trifluoromethyl)phenyl)piperidin-4-yloxy)benzofuran-2-carboxamide]

The remaining lines, values behind:

SMILES | EC50
N#Cc1ccc(CN2CCC(Oc3ccc4oc(C(=O)NC5CCN(Cc6ccccc6)CC5)cc4c3)CC2)cc1 [Compound 114, N-(1-benzylpiperidin-4-yl)-5-(1-(4-cyanobenzyl)piperidin-4-yloxy)benzofuran-2-carboxamide] | 100 to 500 nM
O=C(N[C@H]1CCN(Cc2ccncc2)C1)c1cc2cc(OC3CCN(Cc4ccc(Cl)cc4)CC3)ccc2o1 [Compound 129, (S)-5-(1-(4-chlorobenzyl)piperidin-4-yloxy)-N-(1-(pyridin-4-ylmethyl)pyrrolidin-3-yl)benzofuran-2-carboxamide] | 1000 to 10000 nM
O=C(NC1CCN(Cc2ccccn2)CC1)c1cc2ccc(OC3CCN(c4ccc(C(F)(F)F)cc4)CC3)cc2o1 [Compound 93, N-(1-(pyridin-2-ylmethyl)piperidin-4-yl)-6-(1-(4-(trifluoromethyl)phenyl)piperidin-4-yloxy)benzofuran-2-carboxamide] | 100 to 500 nM
Cc1c(C(=O)NC2CCNCC2)oc2cc(OC3CCN(c4ccc(C(F)(F)F)cc4)CC3)ccc12 [Compound 62, 3-methyl-N-(piperidin-4-yl)-6-(1-(4-(trifluoromethyl)phenyl)piperidin-4-yloxy)benzofuran-2-carboxamide] | 10000 to 50000 nM
N#Cc1ccc(CN2CCC(Oc3ccc4oc(C(=O)NC5CCN(Cc6ccncc6)CC5)cc4c3)CC2)cc1 [Compound 79, 5-(1-(4-cyanobenzyl)piperidin-4-yloxy)-N-(1-(pyridin-4-ylmethyl)piperidin-4-yl)benzofuran-2-carboxamide] | 100 to 500 nM
O=C(NC1CCN(Cc2ccc(F)cc2)CC1)c1cc2ccc(OC3CCN(c4ccc(OC(F)(F)F)cc4)CC3)cc2o1 [Compound 94, N-(1-(4-fluorobenzyl)piperidin-4-yl)-6-(1-(4-(trifluoromethoxy)phenyl)piperidin-4-yloxy)benzofuran-2-carboxamide] | < 100 nM
CN(C(=O)c1cc2cc(OC3CCN(c4ccc(C(F)(F)F)cc4)CC3)ccc2o1)C1CCN(Cc2cccnc2)CC1 [Compound 109, N-methyl-N-(1-(pyridin-3-ylmethyl)piperidin-4-yl)-5-(1-(4-(trifluoromethyl)phenyl)piperidin-4-yloxy)benzofuran-2-carboxamide] | < 100 nM
O=C(NC1CCNCC1)c1cc2ccc(OC3CCN(c4ccc(OC(F)(F)F)cc4)CC3)cc2o1 [Compound 83, N-(piperidin-4-yl)-6-(1-(4-(trifluoromethoxy)phenyl)piperidin-4-yloxy)benzofuran-2-carboxamide hydrochloride] | 100 to 500 nM
O=C(NC1CCN(Cc2ccccn2)CC1)c1cc2ccc(OC3CCN(c4ccc(OC(F)(F)F)cc4)CC3)cc2o1 [Compound 92, N-(1-(pyridin-2-ylmethyl)piperidin-4-yl)-6-(1-(4-(trifluoromethoxy)phenyl)piperidin-4-yloxy)benzofuran-2-carboxamide] | 500 to 1000 nM
Cc1c(C(=O)NC2CCN(Cc3ccccn3)CC2)oc2cc(OC3CCN(c4ccc(C(F)(F)F)cc4)CC3)ccc12 [Compound 68, 3-methyl-N-(1-(pyridin-2-ylmethyl)piperidin-4-yl)-6-(1-(4-(trifluoromethyl)phenyl)piperidin-4-yloxy)benzofuran-2-carboxamide] | < 100 nM
O=C(NC1CCN(Cc2ccc(C(F)(F)F)cc2)CC1)c1cc2ccc(OC3CCN(c4ccc(C(F)(F)F)cc4)CC3)cc2o1 [Compound 99, N-(1-(4-(trifluoromethyl)benzyl)piperidin-4-yl)-6-(1-(4-(trifluoromethyl)phenyl)piperidin-4-yloxy)benzofuran-2-carboxamide] | < 100 nM
CN(C(=O)c1cc2cc(OC3CCN(c4ccc(C(F)(F)F)cc4)CC3)ccc2o1)C1CCN(Cc2ccccc2C#N)CC1 [Compound 111, N-(1-(2-cyanobenzyl)piperidin-4-yl)-N-methyl-5-(1-(4-(trifluoromethyl)phenyl)piperidin-4-yloxy)benzofuran-2-carboxamide] | 100 to 500 nM
Cc1c(C(=O)NC2CCN(Cc3ccc(C#N)cc3)CC2)oc2cc(OC3CCN(c4ccc(C(F)(F)F)cc4)CC3)ccc12 [Compound 64, N-(1-(4-cyanobenzyl)piperidin-4-yl)-3-methyl-6-(1-(4-(trifluoromethyl)phenyl)piperidin-4-yloxy)benzofuran-2-carboxamide] | < 100 nM

Same assay, conditions: Table 5, AMPK activation, ELISA

EC50 | SMILES
< 100 nM | O=C(NC1CCN(Cc2cccnc2)CC1)c1sc2cc(OC3CCN(c4ccc(C(F)(F)F)cc4)CC3)ccc2c1Cl [Compound 152, 3-chloro-N-(1-(pyridin-3-ylmethyl)piperidin-4-yl)-6-(1-(4-(trifluoromethyl)phenyl)piperidin-4-yloxy)benzo[b]thiophene-2-carboxamide]
< 100 nM | O=C(NC1CCN(Cc2ccncc2)CC1)c1cc2cc(OC3CCN(Cc4ccc(Cl)cc4)CC3)ccc2s1 [Compound 139, formate salt]
> 50000 nM | O=C(NC1CCNCC1)c1sc2cc(OC3CCN(c4ccc(C(F)(F)F)cc4)CC3)ccc2c1Cl [Compound 148, 3-chloro-N-(piperidin-4-yl)-6-(1-(4-(trifluoromethyl)phenyl)piperidin-4-yloxy)benzo[b]thiophene-2-carboxamide]
